Test results as given in US6919090B2, “Active substance combinations with insecticidal and acaricidal properties” (priority 2000, dated 2005).

Experiments:
Assay type in all cases: in vivo
[1] = system: normally sensitive caterpillars of the diamondback moth (Plutella xylostella); experiment: Plutella Test (normally sensitive), cabbage leaf dip
Description: (§1) The expected action for a given combination of two active compounds can be calculated as follows, using the formula of S. R. Colby, Weeds 15 (1967), 20-22: • If • X is the kill rate, expressed as % of the untreated control, when employing active compound A at an application rate of m g/ha or in a concentration of m ppm, • Y is the kill rate, expressed as % of the untreated control, when employing active compound B at an application rate of n g/ha or in a concentration of n ppm and • E is the kill rate, expressed as % of the untreated control, when employing active compounds A and B at application rates of m and n g/ha or in a concentration of m and n ppm, • then [formula]
(§2) If the actual insecticidal kill rate exceeds the calculated value, the action of the combination is superadditive, i.e. a synergistic effect is present. In this case, the actually observed kill rate must exceed the value calculated using the above formula for the expected kill rate (E).
Plutella Test (Normally Sensitive)
To produce a suitable preparation of active compound, 1 part by weight of active compound is mixed with the stated amounts of solvent and emulsifier, and the concentrate is diluted with emulsifier-containing water to the desired concentration. […]
After the desired period of time, the kill in % is determined. […] The kill rates determined are calculated using Colby's formula.

[2] = system: resistant caterpillars of the diamondback moth (Plutella xylostella); experiment: Plutella Test (resistant), cabbage leaf dip
Description: as §1, §2
Plutella Test (Resistant)
To produce a suitable preparation of active compound, 1 part by weight of active compound is mixed with the stated amounts of solvent and emulsifier, and the concentrate is diluted with emulsifier-containing water to the desired concentration.
Cabbage leaves (Brassica oleracea) are treated by being dipped into the preparation of active compound of the desired concentration and are populated with resistant caterpillars of the diamondback moth (Plutella xylostella) while the leaves are still moist.
(§3) After the desired period of time, the kill in % is determined. 100% means that all caterpillars have been killed; 0% means that none of the caterpillars have been killed. The kill rates determined are calculated using Colby's formula.

[3] = system: caterpillars of the army worm (Spodoptera frugiperda); experiment: Spodoptera frugiperda Test, cabbage leaf dip
Description: as §1, §2
Spodoptera frugiperda Test
To produce a suitable preparation of active compound, 1 part by weight of active compound is mixed with the stated amounts of solvent and emulsifier, and the concentrate is diluted with emulsifier-containing water to the desired concentration. Cabbage leaves (Brassica oleracea) are treated by being dipped into the preparation of active compound of the desired concentration and are populated with caterpillars of the army worm (Spodoptera frugiperda) while the leaves are still moist.
as §3

Cc1cc(C)c(C2=C(OC(=O)CC(C)(C)C)C3(CCCC3)OC2=O)c(C)c1 [Ex. I-b-1]
Kill rate in % after 3 d ([1]; 100 ppm): 40%
Kill rate in % after 7 d ([2]; 100 ppm): 35%
Kill rate in % after 7 d ([2]; 500 ppm): 40%
Kill rate in % after 7 d ([3]; 100 ppm): 0%

N#Cc1nn(-c2c(Cl)cc(C(F)(F)F)cc2Cl)c(N)c1[S+]([O-])C(F)(F)F (stereo not drawn) [Fipronil, fipronil]
Kill rate in % after 7 d ([2]; 0.032 ppm): 40%
Kill rate in % after 7 d ([3]; 0.8 ppm): 20%

COC(=O)N(C(=O)N1COC2(C(=O)OC)Cc3cc(Cl)ccc3C2=N1)c1ccc(OC(F)(F)F)cc1 (stereo not drawn) [Indoxacarb, indoxacarb]
Kill rate in % after 3 d ([1]; 0.16 ppm): 15%
Kill rate in % after 7 d ([2]; 0.16 ppm): 90%

Emamectin-benzoate
Kill rate in % after 7 d ([3]; 0.16 ppm): 55%
